Reference: patent US11306092B2, “Amino indole compounds useful as TLR inhibitors” (BRISTOL-MYERS SQUIBB COMPANY, priority 2017, dated 2022)

Experiments:
Format in all cases: cell-based
human TLR8 = biological target: T1, human TLR8 (Homo sapiens, UniProt Q9NR97); assay: TLR8 inhibition reporter assay (HEK-Blue SEAP reporter); conditions: HEK-Blue cells overexpressing human TLR8; R848 15.9 μM; 22 hour incubation
T1 construct: host or cells: HEK-Blue cells
T1 sequence (Q9NR97 27-1041): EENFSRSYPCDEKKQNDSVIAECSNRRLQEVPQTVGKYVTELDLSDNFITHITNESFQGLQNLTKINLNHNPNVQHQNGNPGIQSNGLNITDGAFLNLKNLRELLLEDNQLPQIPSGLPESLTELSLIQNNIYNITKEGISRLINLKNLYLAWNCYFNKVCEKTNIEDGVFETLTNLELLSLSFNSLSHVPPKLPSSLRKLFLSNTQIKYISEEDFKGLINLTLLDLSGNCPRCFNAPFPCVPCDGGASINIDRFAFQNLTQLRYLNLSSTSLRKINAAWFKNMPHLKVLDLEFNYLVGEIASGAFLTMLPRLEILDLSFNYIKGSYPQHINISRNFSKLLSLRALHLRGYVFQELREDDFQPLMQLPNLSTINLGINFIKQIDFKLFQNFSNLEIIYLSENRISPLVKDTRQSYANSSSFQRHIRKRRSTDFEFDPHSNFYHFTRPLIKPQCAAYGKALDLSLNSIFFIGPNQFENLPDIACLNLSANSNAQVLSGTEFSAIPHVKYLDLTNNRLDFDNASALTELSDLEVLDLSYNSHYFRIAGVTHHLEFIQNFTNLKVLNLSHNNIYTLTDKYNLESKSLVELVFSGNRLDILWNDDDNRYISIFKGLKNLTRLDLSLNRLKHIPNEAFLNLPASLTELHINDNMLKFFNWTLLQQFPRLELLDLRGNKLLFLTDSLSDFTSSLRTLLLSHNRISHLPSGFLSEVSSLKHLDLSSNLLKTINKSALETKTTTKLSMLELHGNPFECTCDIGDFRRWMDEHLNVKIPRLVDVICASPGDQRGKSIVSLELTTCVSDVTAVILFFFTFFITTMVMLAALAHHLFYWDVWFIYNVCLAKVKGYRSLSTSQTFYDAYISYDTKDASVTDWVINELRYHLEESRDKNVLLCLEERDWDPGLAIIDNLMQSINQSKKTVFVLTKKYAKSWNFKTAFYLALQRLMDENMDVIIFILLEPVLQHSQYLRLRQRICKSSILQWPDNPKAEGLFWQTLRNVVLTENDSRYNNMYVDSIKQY
How it was run: (§1)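 Dose–response from 0.05 nM to 50 μM was run in HEK-Blue human TLR7, TLR8 and TLR9 reporter cells. After 30 min at room temperature with compound, ligand was added (TLR7 gardiquimod 7.5 μM; TLR8 R848 15.9 μM; TLR9 ODN2006 5 nM) and SEAP measured next day, at 22 h.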

human TLR9 = biological target: T2, human TLR9 (Homo sapiens, UniProt Q9NR96); assay: TLR9 inhibition reporter assay (HEK-Blue SEAP reporter); conditions: HEK-Blue cells overexpressing human TLR9; ODN2006 5 nM; 22 hour incubation
T2 construct: host or cells: HEK-Blue cells
T2 sequence (Q9NR96 26-1032): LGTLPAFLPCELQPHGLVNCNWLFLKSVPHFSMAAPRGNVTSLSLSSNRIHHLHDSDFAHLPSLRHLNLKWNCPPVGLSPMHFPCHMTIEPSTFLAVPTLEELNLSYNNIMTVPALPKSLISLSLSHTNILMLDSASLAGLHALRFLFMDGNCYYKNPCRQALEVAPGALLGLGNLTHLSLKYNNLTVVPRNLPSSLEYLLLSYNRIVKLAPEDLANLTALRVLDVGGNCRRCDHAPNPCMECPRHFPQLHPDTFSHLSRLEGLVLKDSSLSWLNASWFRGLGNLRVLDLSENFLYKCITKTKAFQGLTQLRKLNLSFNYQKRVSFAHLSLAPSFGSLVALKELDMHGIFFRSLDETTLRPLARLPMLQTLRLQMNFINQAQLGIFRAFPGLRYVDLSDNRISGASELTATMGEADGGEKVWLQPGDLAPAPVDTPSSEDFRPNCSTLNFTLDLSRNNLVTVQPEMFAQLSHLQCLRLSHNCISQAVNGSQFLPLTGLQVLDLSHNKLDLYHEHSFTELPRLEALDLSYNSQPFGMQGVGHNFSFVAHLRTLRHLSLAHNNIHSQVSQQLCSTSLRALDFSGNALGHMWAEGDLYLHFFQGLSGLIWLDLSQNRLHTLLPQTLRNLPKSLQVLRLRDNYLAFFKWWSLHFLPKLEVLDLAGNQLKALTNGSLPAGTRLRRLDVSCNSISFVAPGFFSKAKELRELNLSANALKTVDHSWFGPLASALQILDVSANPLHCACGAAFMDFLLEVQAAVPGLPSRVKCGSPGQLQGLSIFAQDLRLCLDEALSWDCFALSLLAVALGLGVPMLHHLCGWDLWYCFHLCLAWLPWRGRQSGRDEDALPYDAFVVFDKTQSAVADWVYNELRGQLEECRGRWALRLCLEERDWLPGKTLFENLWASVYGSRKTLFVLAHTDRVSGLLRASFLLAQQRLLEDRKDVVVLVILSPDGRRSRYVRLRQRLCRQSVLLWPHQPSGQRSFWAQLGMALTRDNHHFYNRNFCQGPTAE
How it was run: as §1

human TLR7 = biological target: T3, human TLR7 (Homo sapiens, UniProt Q9NYK1); assay: TLR7 inhibition reporter assay (HEK-Blue SEAP reporter); conditions: HEK-Blue cells overexpressing human TLR7; gardiquimod 7.5 μM; 22 hour incubation
T3 construct: host or cells: HEK-Blue cells
T3 sequence (Q9NYK1 27-1049): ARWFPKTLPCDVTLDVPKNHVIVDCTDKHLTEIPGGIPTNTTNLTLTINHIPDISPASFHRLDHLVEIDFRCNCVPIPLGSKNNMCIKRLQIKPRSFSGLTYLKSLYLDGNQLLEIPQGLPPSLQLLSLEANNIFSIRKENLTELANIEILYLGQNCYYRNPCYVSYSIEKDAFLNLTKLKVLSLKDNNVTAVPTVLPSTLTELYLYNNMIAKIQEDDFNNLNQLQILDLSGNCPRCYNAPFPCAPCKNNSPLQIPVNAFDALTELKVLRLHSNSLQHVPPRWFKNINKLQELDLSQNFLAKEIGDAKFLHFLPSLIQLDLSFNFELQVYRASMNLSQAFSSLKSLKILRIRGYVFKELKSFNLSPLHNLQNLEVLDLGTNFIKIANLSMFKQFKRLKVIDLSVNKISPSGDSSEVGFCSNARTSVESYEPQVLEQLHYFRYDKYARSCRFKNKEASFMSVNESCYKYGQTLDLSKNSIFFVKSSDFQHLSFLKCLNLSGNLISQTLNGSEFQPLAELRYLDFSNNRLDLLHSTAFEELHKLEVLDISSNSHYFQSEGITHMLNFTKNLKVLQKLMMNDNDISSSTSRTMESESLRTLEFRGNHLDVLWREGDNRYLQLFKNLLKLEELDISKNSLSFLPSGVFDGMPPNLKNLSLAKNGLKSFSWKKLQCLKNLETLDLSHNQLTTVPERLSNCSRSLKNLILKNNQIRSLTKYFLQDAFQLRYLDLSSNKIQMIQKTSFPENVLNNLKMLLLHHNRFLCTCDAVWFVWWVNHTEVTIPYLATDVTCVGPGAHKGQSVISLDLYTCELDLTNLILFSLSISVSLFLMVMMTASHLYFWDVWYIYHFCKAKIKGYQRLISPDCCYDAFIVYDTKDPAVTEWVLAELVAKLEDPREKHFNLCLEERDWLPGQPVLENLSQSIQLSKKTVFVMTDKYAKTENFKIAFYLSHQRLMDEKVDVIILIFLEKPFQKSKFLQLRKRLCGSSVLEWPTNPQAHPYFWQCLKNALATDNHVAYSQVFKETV
How it was run: as §1

IC50 (human TLR8) [nM] | IC50 (human TLR9) [µM] | IC50 (human TLR7) [nM] | SMILES
17 | 2.26 | 1400 | CCNCCOc1ccc(Nc2ccc3[nH]c(-c4ccc(OC)c(OC)c4)c(C(C)C)c3c2)cc1 [Example 105, 2-(3,4-dimethoxyphenyl)-N-(4-(2-(ethylamino)ethoxy)phenyl)-3-isopropyl-1H-indol-5-amine]
35 | 1.43 | 1400 | COc1ccc(-c2[nH]c3ccc(Nc4ccc(OCCN5CCCC5)cc4)cc3c2C(C)C)cc1OC [Example 106, 2-(3,4-dimethoxyphenyl)-3-isopropyl-N-(4-(2-(pyrrolidin-1-yl)ethoxy)phenyl)-1H-indol-5-amine]
55 | 3.46 | 31 | COc1ccc(-c2[nH]c3ccc(N4CCC(=O)N(CCN(C)C)CC4)cc3c2C(C)C)cc1OC [Example 107, 1-(2-(3,4-dimethoxyphenyl)-3-isopropyl-1H-indol-5-yl)-4-(2-(dimethylamino)ethyl)-1,4-diazepan-5-one]
10 | 2.53 | 23 | COc1ccc(-c2[nH]c3ccc(N4CCC(N(C)C)CC4)cc3c2C(C)C)cc1OC [Example 108, 1-(2-(3,4-dimethoxyphenyl)-3-isopropyl-1H-indol-5-yl)-N,N-dimethylpiperidin-4-amine]
211 | 15.1 | 28 | COc1ccc(-c2[nH]c3ccc(N4CCC(N)(CC#N)CC4)cc3c2C(C)C)cc1OC [Example 109, 2-(4-amino-1-(2-(3,4-dimethoxyphenyl)-3-isopropyl-1H-indol-5-yl)piperidin-4-yl)acetonitrile]
328 | 29.5 | 194 | COc1ccc(-c2[nH]c3ccc(N4CCC(C(C)(C)O)CC4)cc3c2C(C)C)cc1OC [Example 110, 2-(1-(2-(3,4-dimethoxyphenyl)-3-isopropyl-1H-indol-5-yl)piperidin-4-yl)propan-2-ol]
1.8 | 3.46 | 2.4 | Cc1c(-c2[nH]c3ccc(N4CCC(N(C)C)CC4)cc3c2C(C)C)cn(C)c(=O)c1Cl [Example 111, 3-chloro-5-(5-(4-(dimethylamino)piperidin-1-yl)-3-isopropyl-H-indol-2-yl)-1,4-dimethyl-114,215-pyridin-2-one]
9.4 | 6.18 | 62 | CNC1(CC#N)CCN(c2ccc3[nH]c(-c4ccc(OC)c(OC)c4)c(C(C)C)c3c2)CC1 [Example 112, 2-(1-(2-(3,4-dimethoxyphenyl)-3-isopropyl-1H-indol-5-yl)-4-(methylamino)piperidin-4-yl)acetonitrile]
1280 | > 50 | 1200 | COc1ccc(-c2[nH]c3ccc(N4CCCCC4c4ccncc4)cc3c2C(C)C)cc1OC (stereo not drawn) [Example 113, 2-(3,4-dimethoxyphenyl)-3-isopropyl-5-(2-(pyridin-4-yl)piperidin-1-yl)-1H-indole]
24 | 0.951 | 460 | COc1ccc(-c2[nH]c3ccc(N4CCC(OCCN(C)C)CC4)cc3c2C(C)C)cc1OC [Example 114, 2-((1-(2-(3,4-dimethoxyphenyl)-3-isopropyl-H-indol-5-yl)piperidin-4-yl)oxy)-N,N-dimethylethan-1-amine]
61 | 0.621 | 31 | COc1ccc(-c2[nH]c3ccc(N4CCC(CCN5CCCC5)CC4)cc3c2C(C)C)cc1OC [Example 115, 2-(3,4-dimethoxyphenyl)-3-isopropyl-5-(4-(2-(pyrrolidin-1-yl)ethyl)piperidin-1-yl)-1H-indole]
94 | 18.8 | 936 | COc1ccc(-c2[nH]c3ccc(N4CCC(N5CC(O)CC5=O)CC4)cc3c2C(C)C)cc1OC (stereo not drawn) [Example 116, 1-(1-(2-(3,4-dimethoxyphenyl)-3-isopropyl-1H-indol-5-yl)piperidin-4-yl)-4-hydroxypyrrolidin-2-one]
5.3 | 5.05 | 188 | COc1ccc(-c2[nH]c3ccc(N4CCC(C)(N5CCOCC5)CC4)cc3c2C(C)C)cc1OC [Example 117, 4-(1-(2-(3,4-dimethoxyphenyl)-3-isopropyl-H-indol-5-yl)-4-methylpiperidin-4-yl)morpholine]
325 | 1.76 | 1120 | COc1ccc(-c2[nH]c3ccc(N4CCCC5CN(Cc6ccccc6)CC54)cc3c2C(C)C)cc1OC (stereo not drawn) [Example 118, 6-benzyl-1-(2-(3,4-dimethoxyphenyl)-3-isopropyl-1H-indol-5-yl)octahydro-1H-pyrrolo[3,4-b]pyridine]
24 | 2.3 | 1400 | COc1ccc(-c2[nH]c3ccc(N4CCC(C5c6ccccc6CCN5C)CC4)cc3c2C(C)C)cc1OC (stereo not drawn) [Example 119, 1-(1-(2-(3,4-dimethoxyphenyl)-3-isopropyl-1H-indol-5-yl)piperidin-4-yl)-2-methyl-1,2,3,4-tetrahydroisoquinoline]
